Experimental data reported in US20230168203A9, “Pyrogallarene Chelating and Sequestering Agents” (Kinsey Spiel, priority 2018, published 2023).
Where two headings read alike, the source gives them in different places.

Tests used:
[1] = Example A: colour of C-propyl pyrogallol[4]arene colloid in deionized water after adding metal chloride salts (chelation indicator)
Experimental: A stock solution of was made of 400 mg of purified C-propyl pyrogallol[4]arene dissolved in 20 mL of acetone. […] Upon dispensing this aliquot the aqueous solutions were a colorless white colloid. The colloid appeared to be somewhat translucent. Upon dispensing NaCl into one colorless colloid the color was unchanged. Then various chloride salts of metals were added to colorless C-propyl pyrogallol[4]arene colloids. Upon adding ZnCl2 the colloid turned light brown. Upon adding MgCl2 the colloid turned pink. Upon adding Fe(III)Cl3 the colloid turned grey. Upon adding Cu(I)Cl the colloid turned brown. Upon adding CaCl2 the colloid turned pink. Upon adding Cr(III)Cl3 the colloid turned green. Upon adding BaCl2.2H2O the colloid turned pink. Upon adding MnCl2 the colloid turned salmon. Upon adding NiCl2 the colloid turned salmon.
In Example A, half of the metal salts, ZnCl2, MgCl2, CaCl2, and BaClz.2H2O, were colorless in their solid form, before adding them to the colloid. Pyrogallarene chelation is evident as a colorless salts are added to a colorless colloid and varying colors result. Five of the salts were colored in their solid form. […] Although Fe(III)Cl3 was brownish red in its solid form the resulting colloid solution was grey. Cu(I)Cl was green in its solid form but the resulting colloid solution was brown. NiCl2 was green in its solid form but the resulting colloid solution was pink.

[2] = Solid state contact of nearly dry pyrogallarenes with stainless steel spatula; details: freshly-synthesized
From the text: Pyrogallarenes, including C-methyl Pyrogallol[4]arene, C-ethyl Pyrogallol[4]arene, and C-propyl pyrogallol[4]arene, have a high affinity for metals, even in a homogeneous solid state reaction. For example, a stainless steel spatula in contact with these freshly-synthesized and not completely dry (nearly dry) pyrogallarenes results in a color shift from white to blue where the spatula came in contact with the pyrogallol[4]arene. This example may illustrate, as in previous examples, that a chelation reaction has occurred.

[3] = Resilience of chelated precipitate at high temperature; assay type: physicochemical
Experimental: Unlike some solids where solubility increases rapidly with increasing temperature the pyrogallarene chelated precipitate is resilient at high temperature. […] A chelate made from C-propyl pyrogallol[4]arene and a variety of metals is also undissolved at 80° C. […] However, heterogeneous pyrogallol[4]arene chelation complexes appear to dissolve minimally into aqueous solutions, limited by a low Ksp as discussed above.

[4] = Example B: precipitate formation of C-ethyl pyrogallarene colloid (from saturated methanol) after adding metal chlorides
From the text: Some metals required more time for a precipitate to form.

[5] = Example C: C-ethyl pyrogallol[4]arene colloid (from acetone stock) after adding chloride salts
Experimental: Upon dispensing this aliquot the aqueous solutions were colorless white colloids. Various chloride salts were added to the solution including […], Tungsten(IV) chloride, Strontium chloride, Titanium chloride, Zirconyl (IV) chloride octahydrate, Aluminum chloride, and Hafnium chloride. All metal salts were colorless except Tungsten(IV) chloride, which was light green, and Titanium chloride, which was a yellow solution. […] All other colloids appeared unchanged immediately after the addition of the metal. This may be a result of no chelation or slow reaction kinetics for the chelated complex. Finally, one additional salt, colorless Gadolinium Chloride, was tested. […] As stated previously, various examples may indicate chelation and sequestration by pyrogallarenes on a PPM level, owing to the solubility of various chloride salts. For example, PbCl2 is very poorly soluble in water.

[6] = remark: listed apart in the source
Experimental: A stock solution of was made of 100 mg of purified C-ethyl pyrogallol[4]arene dissolved in 20 mL of acetone. 1 mL aliquots of this stock solution were dispensed into vials containing 20 mL of water. Sample one contained TDS of 330, Ca of 30 ppm, Mg of 26 ppm, K of 1 ppm, Si of 15 ppm, bicarbonate of 360 ppm, Pb of <0.001, and a pH of 7.2. Sample two contained TDS of 222, Ca of 18 ppm, Mg of 15 ppm, K of 5.3 ppm, Si of 93 ppm, bicarbonate of 152 ppm, and a pH of 7.7. Sample three contained TDS of 44, Ca of 5 ppm, Mg of 1 ppm, K of 0 ppm, bicarbonate of 20 ppm, and a pH of 7.8.

[7] = Heterogeneous chelation: solid pyrogallol[4]arene dispensed into unpurified aqueous solution

In the case of CCCC1c2cc(c(O)c(O)c2O)C(CCC)c2cc(c(O)c(O)c2O)C(CCC)c2cc(c(O)c(O)c2O)C(CCC)c2cc1c(O)c(O)c2O (centres unmarked) [C-propyl pyrogallol[4]arene], the colour of colloid ([1]; BaCl2.2H2O added) is reported as “pink”, the colour of colloid ([1]; CaCl2 added) is reported as “pink” and the colour of colloid ([1]; Cr(III)Cl3 added) is reported as “green”. The colour of colloid ([1]; Cu(I)Cl added) was “brown”, the colour of colloid ([1]; Fe(III)Cl3 added) was “grey” and the colour of colloid ([1]; MgCl2 added) was “pink”. The colour of colloid ([1]; MnCl2 added) was “salmon”, the colour of colloid ([1]; NaCl added) was “unchanged” and the colour of colloid ([1]; NiCl2 added) was “salmon”. The colour of colloid ([1]; ZnCl2 added) was “light brown”, the “color shift where spatula came in contact” value [2] was “white to blue” and the stability of chelate ([3]; chelate with PbCl2, 80° C) was “stable and undissolved”. The stability of chelate ([3]; chelate with a variety of metals, 80° C) was “undissolved” and the solubility in water was “only slightly soluble”.

With CCC1c2cc(c(O)c(O)c2O)C(CC)c2cc(c(O)c(O)c2O)C(CC)c2cc(c(O)c(O)c2O)C(CC)c2cc1c(O)c(O)c2O (centres unmarked) [C-ethyl pyrogallol[4]arene] the precipitate formed ([4]; BaClz.2H2O, 24 hours later) was “white precipitate”, the precipitate formed ([4]; CaCl2 added, immediately) was “blue precipitate” and the precipitate formed ([4]; Cr(III)Cl3, 24 hours later) was “white precipitate”. For the same compound, the precipitate formed ([4]; Cu(I)Cl, 24 hours later) was “grey precipitate”, the precipitate formed ([4]; NiClz, 24 hours later) was “white precipitate” and the precipitate formed ([4]; PbCl2 added, immediately) was “blue precipitate”. For the same compound, the precipitate formed ([4]; ZnCl2 added, immediately) was “blue precipitate”, the observation on colloid ([5]; Aluminum chloride added, immediately after addition) was “unchanged” and the observation on colloid ([5]; Gadolinium Chloride added) was “purple precipitate”. The observation on colloid ([5]; Hafnium chloride added) was “grey precipitate”, the observation on colloid ([5]; Strontium chloride added) was “white precipitate” and the observation on colloid ([5]; Titanium chloride added, immediately after addition) was “unchanged”. The observation on colloid ([5]; Tungsten(IV) chloride added, immediately after addition) was “unchanged”, the observation on colloid ([5]; Yttrium(II) chloride hydrate added) was “purple precipitate” and the observation on colloid ([5]; Zirconyl (IV) chloride octahydrate added) was “clear grey solution”. For the same compound, the “observation on water sample” value ([6]; Sample four: pH 9.4) was “pink colored solution”, the “observation on water sample” value ([6]; Sample one: TDS 330, Ca 30 ppm, Mg 26 ppm, pH 7.2) was “dense blue precipitate” and the “observation on water sample” value ([6]; Sample three: TDS 44, Ca 5 ppm, Mg 1 ppm, pH 7.8, several days) was “did not produce a precipitate”. The “observation on water sample” value ([6]; Sample two: TDS 222, Ca 18 ppm, Mg 15 ppm, pH 7.7, over a few minutes) was “diffuse blue precipitate”, the “color shift where spatula came in contact” value [2] was “white to blue” and the dissolution of solid ([7]; solid in unpurified aqueous solution) was “almost completely undissolved”. For the same compound, the “shift of absorbance colour of solid” value ([7]; solid, colorless compound in unpurified aqueous solution) was “blue” and the solubility in water was “mostly insoluble”.

For CC1c2cc(c(O)c(O)c2O)C(C)c2cc(c(O)c(O)c2O)C(C)c2cc(c(O)c(O)c2O)C(C)c2cc1c(O)c(O)c2O (centres unmarked) [C-methyl Pyrogallol[4]arene], the “color shift where spatula came in contact” value [2] was “white to blue”.
